Patent publication US4115585A, “Esters of 1-(p-hydroxyphenyl)-2-(1'-methyl-2'-phenoxyethylamino)-1-propanol” (Instituto Luso Farmaco d'Italia S.r.l., priority 1976, dated 1978)

Experiments:
[1] = Hypotensive activity (variation in pressure 1 to 2 days after insertion of a catheter in the abdominal artery, technique of Weeks and Jones); assay type: in vivo
in vivo = settings: rat, po
Source text: According to the invention, esters I may be prepared by the esterification of the phenolic function of 1-(p-hydroxyphenyl)-2-(1'-methyl-2'-phenoxyethylamino)-1-propanol (II) with reactive derivatives like chlorides, bromides, and anhydrides of aliphatic acids of general formula III: [drawing 3] in which R1, R2, and R3 are as reported above. The esterification may be performed in an apolar solvent at reflux (such as benzene, toluene, or an analogous aromatic hydrocarbon) in the presence of an organic base like triethylamine, or in pyridine at room temperature.

## CC(COc1ccccc1)NC(C)C(O)c1ccc(OC(=O)C(C)(C)C)cc1 (stereo not drawn) [LR 693, 1-(p-α,α-dimethylpropionyloxyphenyl)-2-(1'-methyl-2'-phenoxyethylamino)-1-propanol]
[1]; dose 20 mg/Kg os
  Hypotensive Activity Recovery to 50%: 29.0 ± 1.0 min
  Hypotensive Activity Recovery to 75%: 60.0 ± 20.0 min
  Hypotensive Activity maximal pressure decrease: 9.0±1.0 mm Hg
[1]; dose 40 mg/Kg os
  Hypotensive Activity Recovery to 50%: 115.7 ± 21.9 min
  Hypotensive Activity Recovery to 75%: 311.7 ± 34.2 min
  Hypotensive Activity maximal pressure decrease: 21.3±4.1 mm Hg
[1]; dose 80 mg/Kg os
  Hypotensive Activity Recovery to 50%: 180.2 ± 40.7 min
  Hypotensive Activity Recovery to 75%: 384.8 ± 71.0 min
  Hypotensive Activity maximal pressure decrease: 18.8±8.0 mm Hg
In vivo
  LD50: > 5000 mg/kg

## CC(COc1ccccc1)NC(C)C(O)c1ccc(O)cc1 (stereo not shown) [Isoxysuprine, 1-(p-hydroxyphenyl)-2-(1'-methyl-2'-phenoxyethylamino)-1-propanol]
[1]; dose 5 mg/Kg os
  Hypotensive Activity Recovery to 50%: 8.0 ± 3.0 min
  Hypotensive Activity Recovery to 75%: 18.5 ± 6.5 min
  Hypotensive Activity maximal pressure decrease: 24.5±11.5 mm Hg
[1]; dose 10 mg/Kg os
  Hypotensive Activity Recovery to 50%: 79.8 ± 32.6 min
  Hypotensive Activity Recovery to 75%: 105.0 ± 42.9 min
  Hypotensive Activity maximal pressure decrease: 25.3±3.6 mm Hg
[1]; dose 20 mg/Kg os
  Hypotensive Activity Recovery to 50%: 46.4 ± 13.8 min
  Hypotensive Activity Recovery to 75%: 110.4 ± 29.4 min
  Hypotensive Activity maximal pressure decrease: 28.7±4.9 mm Hg
[1]; dose 40 mg/Kg os
  Hypotensive Activity Recovery to 50%: 34.0 ± 12.8 min
  Hypotensive Activity Recovery to 75%: 197.5 ± 59.5 min
  Hypotensive Activity maximal pressure decrease: 21.8±2.1 mm Hg
